Data reported in US4504469A, “Vasotocin derivatives” (priority 1982, dated 1985).
Read-outs that look alike come from different tables or passages of the source. Where a SMILES comes first, the peptide text is derived from it. Bridges are numbered along the chain shown (N, C = ends). [ ]: non-standard residue; d: D form. Cit = NC(=O)NCCC[C@H](N)C(=O)O; Orn = NCCC[C@H](N)C(=O)O; Mpa = O=C(O)CCS

Tests used:
isolated rat uterus = assay type: cell-based
Experimental: The compounds according to the invention were investigated with regard to uterotonic potency on isolated rat uterus, using oxytocin as standard. The antagonistic properties of the compounds were also evaluated with the aid of this preparation. Also in vivo tests using oxytocin as the agonist were carried out, the results being compared with those obtained with Antocin.
Sprague Dawley rats (body weight approximately 250 g) in natural estrous were selected by vaginal smears. An approximately 20 mm long segment was cut from the middle of a uterine horn and mounted in an organ bath containing 10 ml of a modified Locke's solution of the following composition (mM:NaCl 153, KCl 5.63, CaCl2 0.541, NaHCO3 5.95 and glucose 2.78). The solution was gassed with 5% CO2 in oxygen at 30° C. The uterine contractions were allowed to stabilize for 30 min. Contractions were recorded isometrically at a resting tension of 1.5 g using Grass force transducers (Ft. 03). The antagonistic potency of the analogs was calculated as pA2 values (Rudinger, J. & Krejci, I. Experientia 18, (1962), 585-588). pA2 is a measure of the inhibitory effect of the peptide and was defined by Schild (Schild, H. O., British Journal of Pharmacology, 2, (1947), 189-206) as the negative logarithm of the molar concentration of an antagonist which reduces the effect of a dose of agonist to that of half the dose. The agonistic effects, if any, of the antagonists were investigated by adding to the bath containing the uterus preparation a varying amount of peptide corresponding at most to a concentration of 4 μg per ml.

Antidiuretic effect (AD) = assay: Antidiuretic effect (AD); parameters: unit not given here
[1] = Pressor effect (effect on the blood pressure); parameters: reference not given here
rat uterus in vivo = assay: In vivo inhibition of oxytocin-induced uterus contractions in rats, compared with Antocin; conditions: anaesthetized rats, oxytocin infusion i.v., antagonist 0.8-8.0 μg/100 g i.v.; Antocin given the value 1
Experimental: Sprague Dawley rats (250 g) in natural estrous were anaesthetized with Inactin (0.5 mg/100 g body weight i.p.). Myometrial activity was recorded by means of a catheter fixed in the uterine cavity and filled with modified Locke's solution. The catheter was connected to a Statham P23d transducer, and contractions were recorded on a Grass polygraph (model 7d). Oxytocin was infused intravenously (0.05 μg/min/100 g body weight). When a regular contraction pattern had been obtained, the antagonist (0.8-8.0 μg/100 g body weight) was administered intravenously in a volume of 0.2 ml. The recorded curve was integrated over 15 min intervals immediately before and after injection of the antagonist. The inhibition of the increase in the magnitude of the uterus contractions caused by oxytocin infusion were compared with the inhibition of the Antocin which was given the value 1.

[2] = isolated rat uterus, oxytocin as agonist, 30° C.

| Compound | Uterus in vitro antagonist pA2 (isolated rat uterus; [2]) | AD (antidiuretic effect) (Antidiuretic effect (AD)) | Pressor (effect on the blood pressure) [1] | Uterus in vivo, compared with Antocin (rat uterus in vivo) | Type of inhibition of the oxytocin effect (isolated rat uterus) | Uterus in vitro antagonist pA2 (isolated rat uterus) |
| --- | --- | --- | --- | --- | --- | --- |
| 1-β-mercaptopropionic acid-2-(4-ethoxy)-D-phenyl alanine-8-arginine vasotocin [Example 7] | 8.4 | 37.9 | 2.5 | 2 |  |  |
| CCOc1ccc(C[C@H]2NC(=O)CCSSC[C@@H](C(=O)N3CCC[C@H]3C(=O)N[C@@H](CCCN)C(=O)NCC(N)=O)NC(=O)[C@H](CC(N)=O)NC(=O)[C@H]([C@@H](C)O)NC(=O)[C@H]([C@@H](C)CC)NC2=O)cc1 [Antocin, 1-desamino-(2-0-ethyltyrosine)-oxytocin, reference compound] ([Mpa][dY](Et)ITNCP[Orn]G-NH2; disulfide 1-6) | 7.2 | < 0.2 | < 0.1 | 1 | competitive inhibition |  |
| CCOc1ccc(C[C@@H]2NC(=O)CCSSC[C@@H](C(=O)N3CCC[C@H]3C(=O)N[C@@H](CCCN)C(=O)NCC(N)=O)NC(=O)[C@H](CC(N)=O)NC(=O)[C@H](CCC(N)=O)NC(=O)[C@H]([C@@H](C)CC)NC2=O)cc1 [Example 1, 1-β-mercaptopropionic acid-2-(4-ethoxy)-phenyl alanine-8-ornithine-vasotocin] ([Mpa]Y(Et)IQNCP[Orn]G-NH2; disulfide 1-6) |  |  |  |  |  | 8.4 |
| CCOc1ccc(C[C@H]2NC(=O)CCSSC[C@@H](C(=O)N3CCC[C@H]3C(=O)N[C@@H](CCCNC(=N)N)C(=O)NCC(N)=O)NC(=O)[C@H](CC(N)=O)NC(=O)[C@H](CCC(N)=O)NC(=O)[C@H]([C@@H](C)CC)NC2=O)cc1 [Example 2, 1-β-mercaptopropionic acid-2-(4-ethoxy)-D-phenyl alanine-8-arginine vasotocin] ([Mpa][dY](Et)IQNCPRG-NH2; disulfide 1-6) | 8.7 |  |  |  |  |  |
| CCOc1ccc(C[C@@H]2NC(=O)CCSSC[C@@H](C(=O)N3CCC[C@H]3C(=O)N[C@@H](CCCNC(N)=O)C(=O)NCC(N)=O)NC(=O)[C@H](CC(N)=O)NC(=O)[C@H](CCC(N)=O)NC(=O)[C@H]([C@@H](C)CC)NC2=O)cc1 [Example 3, 1-β-mercaptopropionic acid-2-(4-ethoxy)-phenyl alanine-8-citrullin vasotocin] ([Mpa]Y(Et)IQNCP[Cit]G-NH2; disulfide 1-6) |  |  |  |  |  | 8.5 |
| CCOc1ccc(C[C@@H]2NC(=O)CCSSC[C@@H](C(=O)N3CCC[C@H]3C(=O)N[C@@H](CCCNC(=N)N)C(=O)NCC(N)=O)NC(=O)[C@H](CC(N)=O)NC(=O)[C@H](C(C)C)NC(=O)[C@H]([C@@H](C)CC)NC2=O)cc1 [Example 4, 1-β-mercaptopropionic acid-2-(4-ethoxy)-phenyl alanine-4-valine-8-arginine vasotocin] ([Mpa]Y(Et)IVNCPRG-NH2; disulfide 1-6) |  |  |  |  |  | 8.5 |
| CCOc1ccc(C[C@@H]2NC(=O)CCSSC[C@@H](C(=O)N3CCC[C@H]3C(=O)N[C@@H](CCCNC(=N)N)C(=O)NCC(N)=O)NC(=O)[C@H](CC(N)=O)NC(=O)[C@H]([C@@H](C)O)NC(=O)[C@H]([C@@H](C)CC)NC2=O)cc1 [Example 5, 1-β-mercaptopropionic acid-2-(4-ethoxy)-phenyl alanine-4-treonine-8-arginine vasotocin] ([Mpa]Y(Et)ITNCPRG-NH2; disulfide 1-6) | 8.0 |  |  |  |  |  |
| CCOc1ccc(C[C@@H]2NC(=O)CCSSC[C@@H](C(=O)N3CCC[C@H]3C(=O)N[C@@H](CCCN)C(=O)NCC(N)=O)NC(=O)[C@H](CC(N)=O)NC(=O)[C@H](C(C)C)NC(=O)[C@H]([C@@H](C)CC)NC2=O)cc1 [Example 6, 1-β-mercaptopropionic acid-2-(4-ethoxy)-phenyl alanine-4-valine-8-ornithine vasotocin] ([Mpa]Y(Et)IVNCP[Orn]G-NH2; disulfide 1-6) |  |  |  |  |  | 7.6 |
| CC[C@H](C)[C@@H]1NC(=O)[C@@H](Cc2c[nH]c3ccccc23)NC(=O)CCSSC[C@@H](C(=O)N2CCC[C@H]2C(=O)N[C@@H](CCCNC(=N)N)C(=O)NCC(N)=O)NC(=O)[C@H](CC(N)=O)NC(=O)[C@H](C(C)C)NC1=O [Example 8, 1-β-mercaptopropionic acid-2-D-tryptophane-4-valine-8-arginine vasotocin] ([Mpa][dW]IVNCPRG-NH2; disulfide 1-6) |  | 0.1 | 0.12 | 11 |  | 8.4 |
| CCOc1ccc(C[C@H]2NC(=O)CCSSC[C@@H](C(=O)N3CCC[C@H]3C(=O)N[C@H](CCCNC(=N)N)C(=O)NCC(N)=O)NC(=O)[C@H](CC(N)=O)NC(=O)[C@H](C(C)C)NC(=O)[C@H]([C@@H](C)CC)NC2=O)cc1 [Example 9, 1-β-mercaptopropionic acid-2-(4-ethoxy)-D-phenyl alanine-4-valine-8-D-arginine vasotocin] ([Mpa][dY](Et)IVNCP[dR]G-NH2; disulfide 1-6) |  |  |  |  |  | 8.6 |
| CCOc1ccc(C[C@H]2NC(=O)CCSSC[C@@H](C(=O)N3CCC[C@H]3C(=O)N[C@@H](CCCN)C(=O)NCC(N)=O)NC(=O)[C@H](CC(N)=O)NC(=O)[C@H](C(C)C)NC(=O)[C@H]([C@@H](C)CC)NC2=O)cc1 [Example 10, 1-β-mercaptopropionic acid-2-(4-ethoxy)-D-phenyl alanine-4-valine-8-ornithine vasotocin] ([Mpa][dY](Et)IVNCP[Orn]G-NH2; disulfide 1-6) |  |  |  |  |  | 7.9 |
| CCOc1ccc(C[C@H]2NC(=O)CCSSC[C@@H](C(=O)N3CCC[C@H]3C(=O)N[C@@H](CCCN)C(=O)NCC(N)=O)NC(=O)[C@H](CC(N)=O)NC(=O)[C@H]([C@@H](C)O)NC(=O)[C@H]([C@@H](C)CC)NC2=O)cc1 [Example 11, 1-β-mercaptopropionic acid-2-(4-ethoxy)-D-phenyl alanine-4-treonine-8-ornithine vasotocin] ([Mpa][dY](Et)ITNCP[Orn]G-NH2; disulfide 1-6) | 8.3 |  |  |  |  |  |
| CC[C@H](C)[C@@H]1NC(=O)[C@@H](Cc2c[nH]c3ccccc23)NC(=O)CCSSC[C@@H](C(=O)N2CCC[C@H]2C(=O)N[C@H](CCCNC(=N)N)C(=O)NCC(N)=O)NC(=O)[C@H](CC(N)=O)NC(=O)[C@H]([C@@H](C)O)NC1=O [Example 12, 1-β-mercaptopropionic acid-2-D-tryptophane-4-treonine-8-D-arginine vasotocin] ([Mpa][dW]ITNCP[dR]G-NH2; disulfide 1-6) | 8.0 | 0.1 | 0.12 | 6.3 |  |  |
| CC[C@H](C)[C@@H]1NC(=O)[C@@H](Cc2ccc(O)cc2)NC(=O)CCSSC[C@@H](C(=O)N2CCC[C@H]2C(=O)N[C@@H](CCCN)C(=O)NCC(N)=O)NC(=O)[C@H](CC(N)=O)NC(=O)[C@H](C(C)C)NC1=O [Example 13, 1-β-mercaptopropionic acid-2-D-tyrosine-4-valine-8-ornithine vasotocin] ([Mpa][dY]IVNCP[Orn]G-NH2; disulfide 1-6) |  | 1.2 | 0.6 | 4.4 |  | 8.2 |
| CC[C@H](C)[C@@H]1NC(=O)[C@@H](Cc2c[nH]c3ccccc23)NC(=O)CCSSC[C@@H](C(=O)N2CCC[C@H]2C(=O)N[C@@H](CCCN)C(=O)NCC(N)=O)NC(=O)[C@H](CC(N)=O)NC(=O)[C@H](C(C)C)NC1=O [Example 14, 1-β-mercaptopropionic acid-2-D-tryptophane-4-valine-8-ornithine vasotocin] ([Mpa][dW]IVNCP[Orn]G-NH2; disulfide 1-6) |  | 0.03 | 0.03 | 17.9 |  | 7.9 |
| CC[C@H](C)[C@@H]1NC(=O)[C@@H](Cc2c[nH]c3ccccc23)NC(=O)CCSSC[C@@H](C(=O)N2CCC[C@H]2C(=O)N[C@@H](CCCN)C(=O)NCC(N)=O)NC(=O)[C@H](CC(N)=O)NC(=O)[C@H]([C@@H](C)O)NC1=O [Example 15, 1-β-mercaptopropionic acid-2-D-tryptophane-4-treonine-8-ornithine vasotocin] ([Mpa][dW]ITNCP[Orn]G-NH2; disulfide 1-6) |  | 0.1 | 0.05 | 7.8 |  | 8.5 |
